Laboratory results from patent US12576093B2, “Pharmaceutical composition for subcutaneous administration” (MANNKIND CORPORATION, priority 2019, dated 2026).
Like-named read-outs stand apart in the source and are kept apart here.

Legend:
[1] = cited from earlier work
[2] = in vivo; conditions: male, Beagle, dog, sc, 0.837 mg/kg
[3] = cited from earlier work; remark: listed apart in the source
[4] = dog, in vivo, sc, 0.837 mg/kg

For `CN1CCc2cccc3c2[C@H]1Cc1ccc(O)c(O)c1-3` [Apomorphine], the Solubility ([1]; in Toluene (wrapped cell r23-r24: practically insoluble)) is listed as “insoluble in Toluene”, the Solubility ([1]; in alcohol (wrapped cell r19-r20: sparingly soluble in water and in alcohol)) is listed as “Sparingly soluble in water” and the Solubility ([1]; in chloroform (wrapped cell r21-r22: very slightly soluble)) is listed as “water at 80°; very slightly”. For the same compound, the Solubility ([1]; in ether (wrapped cell r21-r23: very slightly soluble)) was “water at 80°; very slightly”, the Solubility ([1]; in water) was “Sparingly soluble in water” and the AUC(0-t) ([2]; AUClast) was 82.9 ng·h/mL. For the same compound, the MRT last ([2]; MRTlast) was 24.4 h, the tmax ([2]; Tmax) was 30 h and the Stability ([3]; exposure to light and air (wrapped cell r15-r17: gradually acquires a green color)) was “acquires a green color on”. The Stability ([3]; recommended storage conditions (protect from light)) was “Stable under recommended” and the Cmax [4] was 3.41 ng(mL.
